Measured values from PMC6585620 (Clinical Pharmacology and Therapeutics, 2018).
Like-named read-outs stand apart in the source and are kept apart here.

Assays:
P‐glycoprotein (P‐gp) [1] = molecular target: T1, P‐glycoprotein (P‐gp) (Homo sapiens, UniProt P08183); conditions: read-out: P‐gp inhibition IC50; in vitro; cited from earlier work
[2] = PBPK model parameters estimated or predicted in Simcyp; design: species or system human; conditions: for CYP3A CLint: retrograde approach
P‐glycoprotein (P‐gp) [3] = molecular target: T1, P‐glycoprotein (P‐gp); test: In vitro P-gp inhibition; type: in vitro ADME
CYP3A4 [4] = molecular target: T2, CYP3A4 (Homo sapiens, UniProt P08684); test: In vitro CYP3A4 time-dependent inhibition; type: in vitro ADME; conditions: measured data
[5] = Blood-to-plasma ratio and plasma unbound fraction; type: in vitro ADME
[6] = tablet 300 mg bid, cited from earlier work
[7] = PKPD exposure-response analysis of SOLO2; type: in vivo, human; conditions: for a 50% increase in exposure to olaparib
[8] = Mass balance ADME study with [14C]-olaparib; type: in vivo, human; conditions: Figure S1
UGT1A1 [9] = molecular target: T3, UGT1A1 (Homo sapiens, UniProt P22309); conditions: read-out: UGT1A1 inhibition IC50; in vitro; cited from earlier work
T3 sequence (P22309 26-533): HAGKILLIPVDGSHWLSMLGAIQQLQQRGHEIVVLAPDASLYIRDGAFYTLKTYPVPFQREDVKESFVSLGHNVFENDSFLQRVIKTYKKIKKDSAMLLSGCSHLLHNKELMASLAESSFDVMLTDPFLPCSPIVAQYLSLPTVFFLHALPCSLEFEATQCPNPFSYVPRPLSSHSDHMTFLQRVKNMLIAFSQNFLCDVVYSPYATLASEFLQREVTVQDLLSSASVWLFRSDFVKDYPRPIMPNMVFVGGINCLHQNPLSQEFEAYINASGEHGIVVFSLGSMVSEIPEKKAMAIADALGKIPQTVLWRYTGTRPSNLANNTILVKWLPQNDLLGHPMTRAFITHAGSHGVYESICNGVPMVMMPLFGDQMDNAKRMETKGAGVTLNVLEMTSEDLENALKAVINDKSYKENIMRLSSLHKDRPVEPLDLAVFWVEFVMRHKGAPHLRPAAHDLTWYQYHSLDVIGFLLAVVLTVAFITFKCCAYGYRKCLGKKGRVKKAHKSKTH

CYP3A4 [10] = test: In vitro CYP3A4 induction; type: in vitro ADME, human
[11] = Physicochemical properties; conditions: PBPK input
CYP3A4 [12] = molecular target: T2, CYP3A4; test: In vitro CYP3A4 reversible inhibition; type: in vitro ADME
UGT1A1 [13] = molecular target: T3, UGT1A1; test: In vitro UGT1A1 inhibition; type: in vitro ADME; conditions: UGT1A1 (Ki=IC50/2), measured data
[14] = cited from earlier work; for Increase in AUC vs normal renal function / Increase in Cmax vs normal renal function: single oral 300 mg tablet
[15] = observed, cited from earlier work
[16] = capsule model, estimated based on clinical data
[17] = adults SOLO2 (observed), ref SOLO2 (NCT01874353)
[18] = capsule 400 mg single dose, arithmetic mean (min–max)
[19] = tablet 300 mg bid multiple dose

T2 sequence (P08684 whole entry): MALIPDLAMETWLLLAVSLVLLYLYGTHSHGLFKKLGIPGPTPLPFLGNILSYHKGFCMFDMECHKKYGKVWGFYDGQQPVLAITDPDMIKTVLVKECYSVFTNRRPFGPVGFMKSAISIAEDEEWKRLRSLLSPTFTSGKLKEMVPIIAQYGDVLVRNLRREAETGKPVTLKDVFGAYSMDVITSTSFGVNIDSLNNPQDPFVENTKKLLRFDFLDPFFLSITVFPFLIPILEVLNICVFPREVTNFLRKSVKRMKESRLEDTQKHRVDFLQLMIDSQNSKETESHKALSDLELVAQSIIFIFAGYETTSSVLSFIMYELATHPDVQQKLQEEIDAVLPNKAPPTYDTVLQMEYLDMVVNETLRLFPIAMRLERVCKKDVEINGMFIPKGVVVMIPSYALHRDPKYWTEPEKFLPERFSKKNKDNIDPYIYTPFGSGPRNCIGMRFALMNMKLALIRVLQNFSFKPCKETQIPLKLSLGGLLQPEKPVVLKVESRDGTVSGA
T1 sequence (P08183 whole entry): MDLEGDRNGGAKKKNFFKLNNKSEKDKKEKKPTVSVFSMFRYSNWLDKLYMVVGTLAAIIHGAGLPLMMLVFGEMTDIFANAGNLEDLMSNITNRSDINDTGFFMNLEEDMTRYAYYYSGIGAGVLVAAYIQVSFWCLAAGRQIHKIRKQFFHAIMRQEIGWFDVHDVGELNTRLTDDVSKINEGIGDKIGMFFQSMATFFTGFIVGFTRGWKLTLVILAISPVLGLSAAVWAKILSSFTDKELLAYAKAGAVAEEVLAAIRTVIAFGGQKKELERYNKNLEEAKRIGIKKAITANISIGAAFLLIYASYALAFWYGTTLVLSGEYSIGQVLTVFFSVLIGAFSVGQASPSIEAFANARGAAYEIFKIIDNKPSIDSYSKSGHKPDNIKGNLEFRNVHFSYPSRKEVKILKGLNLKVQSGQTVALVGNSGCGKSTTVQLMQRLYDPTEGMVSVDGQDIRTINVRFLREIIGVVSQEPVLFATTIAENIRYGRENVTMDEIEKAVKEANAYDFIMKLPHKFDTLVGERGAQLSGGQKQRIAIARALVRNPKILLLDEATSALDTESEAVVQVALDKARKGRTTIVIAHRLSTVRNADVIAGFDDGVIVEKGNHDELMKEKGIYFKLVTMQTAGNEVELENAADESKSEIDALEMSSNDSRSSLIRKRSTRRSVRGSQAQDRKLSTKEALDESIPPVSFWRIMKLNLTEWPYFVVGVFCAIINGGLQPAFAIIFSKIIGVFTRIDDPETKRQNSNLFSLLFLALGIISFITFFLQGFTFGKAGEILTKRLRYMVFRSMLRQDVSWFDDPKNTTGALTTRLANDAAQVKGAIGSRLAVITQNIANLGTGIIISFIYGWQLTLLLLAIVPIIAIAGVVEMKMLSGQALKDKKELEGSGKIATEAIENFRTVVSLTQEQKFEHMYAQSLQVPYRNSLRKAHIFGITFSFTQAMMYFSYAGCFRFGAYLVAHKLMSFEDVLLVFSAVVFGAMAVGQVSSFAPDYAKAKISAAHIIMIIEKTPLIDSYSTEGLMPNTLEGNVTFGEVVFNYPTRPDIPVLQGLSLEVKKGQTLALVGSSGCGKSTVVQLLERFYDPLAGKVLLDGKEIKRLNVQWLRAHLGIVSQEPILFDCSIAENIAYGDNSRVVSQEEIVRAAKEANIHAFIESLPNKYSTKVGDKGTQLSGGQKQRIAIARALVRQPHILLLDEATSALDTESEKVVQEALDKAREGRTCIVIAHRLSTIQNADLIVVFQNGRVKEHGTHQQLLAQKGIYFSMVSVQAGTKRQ

For O=C(c1cc(Cc2n[nH]c(=O)c3ccccc23)ccc1F)N1CCN(C(=O)C2CC2)CC1 [Olaparib], the IC50 (P‐glycoprotein (P‐gp) [1]) is given as 76 µM, the CLpo [2, 16] is given as 6.07 (estimated based on clinical data) L/h and the “Peff,man” value [2, 16] is given as 644 ×10⁻⁶ cm/s (estimated based on clinical data). The “CYP3A CLint” value ([2]; capsule model) was 0.0412 (retrograde approach) µL/min/pmol of isoform, the CLpo ([2]; tablet model, estimated based on clinical data) was 7.6 (estimated based on clinical data) L/h and the “CYP3A CLint” value ([2]; tablet model) was 0.057 (retrograde approach) µL/min/pmol of isoform. The Ki (P‐glycoprotein (P‐gp) [3]) was 73.9 µM, the “CYP3A4 TDI KI” value (CYP3A4 [4]) was 72.2 (measured data) μM and the “fu,plasma” value ([5]; fraction unbound in plasma, measured data) was 0.181 (measured data). The fraction unbound ([5]; human, plasma) was 0.181, the “Geometric mean AUC (95% CI)” value ([6]; adults OlympiAD (observed), ref OlympiAD (NCT02000622)) was 41.2 (36.1‐47.0) h·µg/mL and the “Geometric mean AUC (95% CI)” value [6, 17] was 40.7 (37.7–44.0) h·µg/mL. The “Geometric mean Cmax (95% CI)” value [6, 17] was 7.12 (6.75–7.51) μg/mL, the “Predicted drop in hemoglobin level” value [7] was ~17.5% and the “Share of total clearance by oxidation via CYP3A4/5” value [8] was 84%. The “Share of total clearance by renal elimination” value [8] was 16%, the IC50 (UGT1A1 [9]) was 96.7 µM and the EC50 (CYP3A4 [10]; human) was 17.7 µM. The “CYP3A4 induction Emax” value (CYP3A4 [10]; measured data) was 48.1 (measured data) fold, the pKa [11] was “Neutral” and the “Log P” value ([11]; measured data) was 1.55 (measured data). The Ki (CYP3A4 [12]) was 59.5 µM, the Ki (UGT1A1 [13]) was 48.4 µM and the Renal clearance ([14]; based on clinical data, ref NCT01894256) was 1.48 (based on clinical data: NCT01894256) L/h. The “Change in AUC and Cmax vs normal hepatic function” value ([14]; mild and moderate hepatic impairment) was < 15%, the “Increase in AUC vs normal renal function” value ([14]; mild renal impairment) was 24% and the “Increase in Cmax vs normal renal function” value ([14]; mild renal impairment) was 15%. The “Increase in AUC vs normal renal function” value ([14]; moderate renal impairment) was 44%, the “Increase in Cmax vs normal renal function” value ([14]; moderate renal impairment) was 26% and the “AUCt (range)” value [15, 18] was 56.2 (21.9–299) h·µg/mL. The “Cmax (range)” value [15, 18] was 4.44 (3–15) µg/mL, the “AUCss (range)” value [15, 19] was 63.8 (25.5–189) h·µg/mL and the “Cmax (range)” value [15, 19] was 9.71 (4.8–24.9) µg/mL. The “Cmax (range)” value ([15]; tablet 300 mg single dose, arithmetic mean (min–max)) was 7.41 (2.6–19.1) µg/mL.
